These results are taken from patent US12209141B2, “Dipeptide compounds and uses thereof” (HUAHAI US INC., priority 2018, dated 2025).

Molecules are shown by their SMILES.

As usually defined, the solubility is how much of the substance goes into solution per volume. A word on the AUC(0-inf): it is the area under the concentration-time curve extrapolated to infinity. A word on the Cmax: it is the highest concentration seen after dosing. Usually half-life stands for the time in which the quantity being followed falls by half.

Data set [1] in a line: Solubility tests at different pH values. It counts as physicochemical. Particulars: aqueous buffer, thermodynamic from solid, 37° C. As to the method: Weigh proper amount of the test chemical into buffered salt solutions with different pH value (4.0, 6.3, 7.4 and 9.0), the suspension was shaken at 37° C. for 1 hour. Precipitated and undissolved residues were removed by centrifugation. The content of the supernatant was determined by HPLC to analyze the solubility of the test chemical.

Data set [2] relates to venous thrombosis in SD Rat. Kind of data set: Venous thrombosis in rat. Particulars: for antithrombotic effect (in words): single oral dose of 10 mg/kg. It counts as in vivo. Also noted: wet weight of thrombus: unit not given here. From the text: Animals: SD Rat (Weight 180˜210 g, Sex Male)
Solution preparation: Weigh proper amount of the test chemical, dissolved in DMSO to give the stock solutions, serial dilution with water then provided the required concentration of administration dosage.
Experimental procedures: After 3-day adaptive breeding, male Sprague-Dawley rats were randomly divided into groups: model group, positive drug group and compound groups, with 4˜6 rats in each group.
The rats in the model group were given either intravenous injection or intragastric administration with equivalent solvent, those in the positive or compound group were given either intravenous injection or intragastric administration in a dose of 10 mg/kg.
The left renal vein was ligated with a silk thread to initiate thrombus formation. After 6 hours of stasis, another ligature was made at the distal side 2 cm apart from the first, thrombus formed inside the vessel was carefully removed, blotted on wet filter paper and weighed.

Data set [3] in a line: Plasma stability (incubation in rat whole blood, conversion to compound (V)). The data set is classed as in vitro ADME. Particulars: study period of 8 h. The method, then: An aliquot of 1 ml of rat whole blood was mixed with 50 ul of stock solution containing the test substance in DMSO (1 mg/ml) to obtain final concentration of 50 ug/ml. The mixture was incubated at 37° C. Samples were taken at time points of 0 min, 30 min, 1 h, 2 h, 4 h and 8 h, and then added to an organic solvent to terminate the reaction. After pretreatment each sample was analyzed by LC-MS/MS to determine the plasma concentrations of compound (III), compound (IV) and compound (V). […] The hydrolysis of the carbamate bond of each compound was accomplished within 30 minutes

Another data set in a line: Pharmacokinetics in dog. It counts as in vivo, Beagle Dog. Particulars: single i.v. dose of 2 mg/kg. As to the method:
(§1) Intragastric solution preparation: proper amount of the test chemical was weighed, and dissolved in DMSO to give the stock solution, which was then diluted serially with 0.5% CMC-Na solution to the required concentration of administration dosage.
(§2) IV solution preparation: proper amount of compound (V) was weighed, and dissolved in normal saline to give the stock solution, which was then diluted serially to the required concentration of administration dosage.
Experimental procedures: After 3-day adaptive breeding, male dogs were divided into groups randomly with 4 dogs in each group.
Dogs were orally given 5 mg/kg of the test compound via gavage for oral study or given 2 mg/kg of compound (V) via the femoral vein for intravenous (i.v.) study. Blood samples were collected at 15 min, 30 min, 1 h, 1.5 h, 2 h, 4 h, 6 h, 8 h, 10 h, and 24 h after dosing and were analyzed by LC-MS/MS after pretreatment.
(§3) WPS software was used to calculate the mean value, standard deviation, precision and accuracy of each sample.

Another data set can be described thus: Pharmacokinetics in rat. Particulars: single i.v. dose of 2 mg/kg. It counts as in vivo, SD Rat. The method, then:
Animals: SD Rat (Weight 200˜300 g, Sex Male)
as §1, §2
Experimental procedures: After 3-day adaptive breeding, male Sprague-Dawley rats were divided into groups randomly with 4 rats in each group.
Rats were orally given 10 mg/kg of the test compound via gavage for oral study or given 2 mg/kg of compound (V) via the femoral vein for intravenous (i.v.) study. Blood samples were collected from the orbitat at 15 min, 30 min, 1 h, 1.5 h, 2 h, 4 h, 6 h, 8 h, 10 h, and 24 h after dosing and were analyzed by LC-MS/MS after pretreatment.
as §3

[4] abbreviates: single oral administration 10 mg/kg, Model 28.4 ± 7.5.
[5] abbreviates: single intravenous injection 10 mg/kg, compared with dabigatran, Model 22.7 ± 3.5.
[6] abbreviates: single intravenous injection 10 mg/kg, compared with melagatran, Model 19.6 ± 3.7.
Setting [7] is: male, Sprague-Dawley, plasma, iv.

With `CCOC(=O)CN[C@H](CC(C)C)C(=O)N1CCC[C@H]1C(=O)NCc1ccc(C(N)=NC(=O)OCc2oc(=O)oc2C)cc1.Cl` [Compound 1, N-[(ethoxy)carbonyl]methyl-D-leucyl-L-prolyl-{4-[N′-(((5-methyl-2-oxo-1,3-dioxol-4-yl)methyl)oxycarbonyl)carbamimidoyl]benzyl} amide hydrochloride], the solubility at 1 h in data set [1] (pH 4.0, buffered salt solution) is 7720 µM; in data set [1] (pH 6.3, buffered salt solution), 3990 µM; in data set [1] (pH 7.4, buffered salt solution), 613 µM; in data set [1] (pH 9.0, buffered salt solution) it was 196 µM. Besides, the “antithrombotic effect (in words)” value in data set [2] (rat) is recorded as “significant antithrombotic effect”. Besides, the “wet weight of thrombus” value in data set [2] (setting [4]) is reported as 10.8 ± 5.1.
Consider `CCOC(=O)CN[C@H](CC(C)C)C(=O)N1CCC[C@H]1C(=O)NCc1ccc(C(N)=NC(=O)OCCOC)cc1.Cl` [Compound 2, N-[(ethoxy)carbonyl]methyl-D-leucyl-L-prolyl-{4-[N′-((2-(methoxy)ethoxy)carbonyl)carbamimidoyl]benzyl}amide hydrochloride], for which the “antithrombotic effect (in words)” value in data set [2] (rat) was “significant antithrombotic effect”. Also, in data set [2] (setting [4]), the “wet weight of thrombus” value was 16.7 ± 8.0.
Turning to `CCOCCOCCOC(=O)N=C(N)c1ccc(CNC(=O)[C@@H]2CCCN2C(=O)[C@@H](CC(C)C)NCC(=O)OCC)cc1.Cl` [Compound 6, N-[(ethoxy)carbonyl]methyl-D-leucyl-L-prolyl-{4-[N′-((2-(2-(ethoxy)ethoxy)ethoxy)carbonyl)carbamimidoyl]benzyl} amide hydrochloride], in data set [2] (rat), the “antithrombotic effect (in words)” value is listed as “significant antithrombotic effect”. In addition, the “wet weight of thrombus” value in data set [2] (setting [4]) was 19.7 ± 6.4.
Turning to `CCOC(=O)CN[C@H](CC(C)C)C(=O)N1CCC[C@H]1C(=O)NCc1ccc(C(N)=NC(=O)OCCOCCOCc2ccccc2)cc1.Cl` [Compound 8, N-[(ethoxy)carbonyl]methyl-D-leucyl-L-prolyl-{4-[N′-((2-(2-(benzyloxy)ethoxy)ethoxy)carbonyl)carbamimidoyl]benzyl} amide hydrochloride], the “antithrombotic effect (in words)” value in data set [2] (rat) was “significant antithrombotic effect”. In addition, the “wet weight of thrombus” value in data set [2] (setting [4]) was determined as 12.5 ± 3.1.
Take `CCOCCCOC(=O)N=C(N)c1ccc(CNC(=O)[C@@H]2CCCN2C(=O)[C@@H](CC(C)C)NCC(=O)OCC)cc1.Cl` [Compound 10, N-[(ethoxy)carbonyl]methyl-D-leucyl-L-prolyl-{4-[N′-((3-(ethoxy)propoxy)carbonyl)carbamimidoyl]benzyl} amide hydrochloride]: the solubility at 1 h in data set [1] (pH 4.0, buffered salt solution) is 6520 µM; in data set [1] (pH 6.3, buffered salt solution), 3350 µM; in data set [1] (pH 7.4, buffered salt solution), 495 µM; in data set [1] (pH 9.0, buffered salt solution), 119 µM. In data set [2] (rat), the “antithrombotic effect (in words)” value is on record as “significant antithrombotic effect”. Moreover, in data set [2] (setting [4]), the “wet weight of thrombus” value is on record as 14.6 ± 3.6.
`CCOC(=O)CN[C@H](CC(C)C)C(=O)N1CCC[C@H]1C(=O)NCc1ccc(C(N)=NC(=O)CC(C)C(=O)OCC)cc1.Cl` (stereo partly drawn) [Compound 12, N-[(ethoxy)carbonyl]methyl-D-leucyl-L-prolyl-{4-[N′-((2-(ethoxycarbonyl)propyl)carbonyl)carbamimidoyl]benzyl} amide hydrochloride]: the “antithrombotic effect (in words)” value in data set [2] (rat) is given as “significant antithrombotic effect”. The “wet weight of thrombus” value in data set [2] (setting [4]) is 20.5 ± 4.7.
With `CCCCCCOC(=O)N=C(N)c1ccc(CNC(=O)[C@@H]2CCCN2C(=O)[C@@H](CC(C)C)NCC(=O)OCC)cc1.Cl` [Compound 17, N-[(ethoxy)carbonyl]methyl-D-leucyl-L-prolyl-{4-[N′-(hexyloxycarbonyl)carbamimidoyl]benzyl} amide hydrochloride], the solubility at 1 h in data set [1] (pH 4.0, buffered salt solution) was found to be 5840 µM; in data set [1] (pH 6.3, buffered salt solution), 3720 µM; in data set [1] (pH 7.4, buffered salt solution) it was 693 µM; in data set [1] (pH 9.0, buffered salt solution), 147 µM. Further, the “antithrombotic effect (in words)” value in data set [2] (rat) is listed as “significant antithrombotic effect”. Further, in data set [2] (setting [4]), the “wet weight of thrombus” value is 11.0 ± 5.5.
For `CCCCCCOC(=O)N=C(N)c1ccc(CNC(=O)[C@@H]2CCCN2C(=O)[C@@H](CC(C)C)NCC(=O)OC(C)(C)C)cc1.Cl` [Compound 19, N-[(tert-butyloxy)carbonyl]methyl-D-leucyl-L-prolyl-{4-[N′-(hexyloxycarbonyl)carbamimidoyl]benzyl} amide hydrochloride], in data set [2] (rat), the “antithrombotic effect (in words)” value is recorded as “significant antithrombotic effect”. For the same molecule, the “wet weight of thrombus” value in data set [2] (setting [4]) came to 13.9 ± 6.0.
Turning to `CC(C)C[C@@H](NCC(=O)O)C(=O)N1CCC[C@H]1C(=O)NCc1ccc(C(=N)N)cc1` [Compound of Formula (V)], the “stability in plasma stability experiment (in words)” value in data set [3] is recorded as “substantially stable, with no significant degradation”. In addition, the area under the curve AUC(0-inf) in the data set “Pharmacokinetics in dog” (male, beagle, plasma, iv) was 4340 ng·h/mL; in “Pharmacokinetics in rat” (setting [7]), 2960 ng·h/mL. The Cmax came out at 4040 ng/mL in the data set “Pharmacokinetics in dog” (male, beagle, plasma, iv) and 4720 ng/mL in “Pharmacokinetics in rat” (setting [7]). Moreover, the half-life in “Pharmacokinetics in dog” (male, beagle, plasma, iv) is 11.8 h; in “Pharmacokinetics in rat” (setting [7]), 5.02 h. For the same molecule, the CLz/F in “Pharmacokinetics in dog” was 7.9 mL/min/kg; in the data set “Pharmacokinetics in rat” it was 11.6 mL/min/kg. Moreover, the “anti-thrombotic activity (in words)” value in data set [2] (rat, single injection at 10 mg/kg) was “superior anti-thrombotic activity compared to dabigatran and melagatran”. For the same molecule, the “wet weight of thrombus” value in data set [2] (setting [5]) was 13.3 ± 1.5; in data set [2] (setting [6]), 6.8 ± 5.0.
For `[H]/N=C(/N)c1ccc(NCc2nc3cc(C(=O)N(CCC(=O)O)c4ccccn4)ccc3n2C)cc1` [Dabigatran, reference compound], in data set [2] (setting [5]), the “wet weight of thrombus” value was 15.7 ± 4.0.
On to `N=C(N)c1ccc(CNC(=O)[C@@H]2CCN2C(=O)[C@H](NCC(=O)O)C2CCCCC2)cc1` [Melagatran, reference compound], for which, in data set [2] (setting [6]), the “wet weight of thrombus” value is 7.8 ± 7.6.
